Assays:
Renin [1] = target: T1, Renin (Homo sapiens, UniProt P00797); test: Inhibition of human recombinant renin in presence of plasma by TR-FRET assay
T1 sequence (P00797 whole entry): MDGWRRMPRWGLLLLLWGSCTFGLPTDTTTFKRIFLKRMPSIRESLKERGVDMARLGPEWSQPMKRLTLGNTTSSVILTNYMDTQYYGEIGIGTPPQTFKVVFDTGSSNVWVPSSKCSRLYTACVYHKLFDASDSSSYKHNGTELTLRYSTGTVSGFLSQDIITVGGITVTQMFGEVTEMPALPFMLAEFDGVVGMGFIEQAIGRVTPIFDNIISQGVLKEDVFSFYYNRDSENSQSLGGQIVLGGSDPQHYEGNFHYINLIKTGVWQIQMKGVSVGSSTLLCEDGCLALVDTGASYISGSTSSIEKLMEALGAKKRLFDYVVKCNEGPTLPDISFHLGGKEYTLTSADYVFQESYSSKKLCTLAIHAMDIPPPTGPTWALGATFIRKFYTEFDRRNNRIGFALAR

Mu-type opioid receptor = Mu-type opioid receptor (Homo sapiens, UniProt P35372); test: Inhibition of mu opioid receptor (unknown origin)
Cathepsin D = Cathepsin D (Homo sapiens, UniProt P07339); test: Inhibition of cathepsin D (unknown origin)
Rattus norvegicus [2] = test: Oral bioavailability in cannulated fed Sprague-Dawley rat at 6 mg/kg; assay type: ADME, organism-based; conditions: in vivo
[3] = Volume of distribution at steady state in cannulated fed Sprague-Dawley rat at 2 mg/kg, iv; assay type: ADME, organism-based; set-up: dose 2 mg/kg, route intravenous; conditions: in vivo, read-out: Vdss
Renin [4] = target: T1, Renin; test: Inhibition of human recombinant renin by TR-FRET assay
Pepsin A = Pepsin A (Homo sapiens, UniProt P0DJD9); test: Inhibition of pepsin A (unknown origin)
[5] = Cmax in cannulated fed Sprague-Dawley rat at 6 mg/kg, po; assay type: ADME, organism-based; set-up: dose 6 mg/kg, route oral; conditions: in vivo
Rattus norvegicus [6] = test: Reduction in mean arterial blood pressure in hypertensive telemetered double-transgenic rat overexpressing human renin and angiotensinogen at 30 mg/kg, po; assay type: functional
Gastricsin = target: T2, Gastricsin (Homo sapiens, UniProt P20142); test: Inhibition of pepsin C (unknown origin)
T2 sequence (P20142 whole entry): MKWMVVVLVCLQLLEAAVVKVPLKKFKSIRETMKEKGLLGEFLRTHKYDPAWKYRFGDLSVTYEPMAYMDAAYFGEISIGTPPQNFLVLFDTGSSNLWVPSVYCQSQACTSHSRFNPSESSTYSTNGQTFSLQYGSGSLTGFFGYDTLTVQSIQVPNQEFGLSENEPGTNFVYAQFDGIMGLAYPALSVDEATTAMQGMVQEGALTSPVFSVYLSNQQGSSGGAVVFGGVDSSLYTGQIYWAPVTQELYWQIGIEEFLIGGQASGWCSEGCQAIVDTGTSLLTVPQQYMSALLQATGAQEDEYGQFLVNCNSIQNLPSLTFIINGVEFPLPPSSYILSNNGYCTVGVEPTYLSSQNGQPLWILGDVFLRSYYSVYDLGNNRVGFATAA

Chain of Cathepsin D (P07339 65-162 limits assumed): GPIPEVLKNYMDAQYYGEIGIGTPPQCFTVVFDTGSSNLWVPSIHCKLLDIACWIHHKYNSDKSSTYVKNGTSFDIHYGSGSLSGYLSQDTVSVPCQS
Chain of Cathepsin D (P07339 169-412 limits assumed): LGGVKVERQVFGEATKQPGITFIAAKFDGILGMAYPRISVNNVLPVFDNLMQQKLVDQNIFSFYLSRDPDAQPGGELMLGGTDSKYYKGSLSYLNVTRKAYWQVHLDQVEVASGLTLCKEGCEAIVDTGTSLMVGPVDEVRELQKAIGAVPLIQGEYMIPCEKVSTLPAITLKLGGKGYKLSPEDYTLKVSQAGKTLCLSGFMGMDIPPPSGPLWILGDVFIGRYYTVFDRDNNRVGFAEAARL
Chain of Mu-type opioid receptor (P35372 whole entry): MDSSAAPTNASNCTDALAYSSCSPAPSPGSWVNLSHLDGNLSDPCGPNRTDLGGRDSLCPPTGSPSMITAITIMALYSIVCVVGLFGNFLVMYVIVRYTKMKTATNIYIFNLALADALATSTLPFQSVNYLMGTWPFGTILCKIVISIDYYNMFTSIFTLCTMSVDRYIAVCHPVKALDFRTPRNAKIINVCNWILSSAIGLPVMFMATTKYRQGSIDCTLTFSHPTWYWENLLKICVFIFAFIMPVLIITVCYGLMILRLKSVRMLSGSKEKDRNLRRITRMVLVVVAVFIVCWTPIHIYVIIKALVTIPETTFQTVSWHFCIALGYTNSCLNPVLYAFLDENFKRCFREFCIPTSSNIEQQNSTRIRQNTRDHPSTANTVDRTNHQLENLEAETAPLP
Chain of Pepsin A (P0DJD9 whole entry): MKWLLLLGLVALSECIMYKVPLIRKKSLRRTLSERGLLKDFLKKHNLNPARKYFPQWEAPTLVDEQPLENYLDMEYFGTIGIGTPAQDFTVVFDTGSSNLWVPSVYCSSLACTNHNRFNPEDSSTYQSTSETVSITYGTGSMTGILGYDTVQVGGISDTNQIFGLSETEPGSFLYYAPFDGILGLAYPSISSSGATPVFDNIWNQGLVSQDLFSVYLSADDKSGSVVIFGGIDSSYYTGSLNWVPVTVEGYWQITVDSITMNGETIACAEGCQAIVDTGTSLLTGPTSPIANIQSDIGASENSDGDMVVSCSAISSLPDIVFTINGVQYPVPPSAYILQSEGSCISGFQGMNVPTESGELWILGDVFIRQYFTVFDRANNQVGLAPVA

`COCCCOc1cc(C(=O)N(C[C@@H]2CNC[C@H]2OC(=O)NCc2ccccc2)C(C)C)ccc1OC` showed an IC50 (Renin [1]) of 30 nM, an IC50 (Mu-type opioid receptor) of 1000 nM and an IC50 (Cathepsin D) of over 30000 nM. The F (Rattus norvegicus [2]) was 57%, the Vd [3] was 4.9 L/kg and the IC50 (Renin [4]) was 40 nM. For the same compound, the IC50 (Pepsin A) was over 30000 nM, the Cmax [5] was 1020 nM and the Activity (Rattus norvegicus [6]) was 62 mmHg. The IC50 (Gastricsin) was over 30000 nM.

From ChEMBL document CHEMBL3400053, “trans-3,4-Disubstituted pyrrolidines as inhibitors of the human aspartyl protease renin. Part II: prime site exploration using an oxygen linker” (Bioorg Med Chem Lett, 2015)
